Measurements from patent US9055743B2, “Alpha, beta-unsaturated imines” (BAYER INTELLECTUAL PROPERTY GMBH, priority 2010, dated 2015).

Tests used:
Assay type in all cases: in vivo
Boophilus microplus = Boophilus microplus test (BOOPMI injection); settings: 20 μg/animal, injection into the abdomen, after 7 days
Experimental: Boophilus microplus Test (BOOPMI Injection)
(§1) Solvent: Dimethyl Sulphoxide
To produce a suitable preparation of active compound, 10 mg of active compound are mixed with 0.5 ml of solvent and the concentrate is diluted with solvent to the desired concentration. The solution of active compound is injected into the abdomen (Boophilus microplus), and the animals are transferred into dishes and kept in a climatized room. The activity is assessed by […] of fertile eggs.
After 7 days, the effect in % is determined 100% means that none of the ticks has laid any fertile eggs.

[1] = system: Boophilus microplus strain Parkhurst, SP-resistant; experiment: Boophilus microplus test (DIP); settings: 100 ppm, after 7 days
Experimental: Boophilus microplus Test (DIP) Test Animals: Adult Fat Females of the Boophilus microplus Strain Parkhurst—SP-Resistant) Solvent: Dimethyl Sulphoxide
10 mg of active compound are dissolved in 0.5 ml of dimethyl sulphoxide. To produce a suitable formulation, the active compound solution is diluted with water to the particular desired concentration.
This active compound preparation is pipetted into tubes. 8-10 ticks are transferred into a further tube provided with holes. The tube is dipped into the active compound preparation, with all the ticks being wetted completely. After the liquid has run off, the ticks are transferred to filter discs in plastic dishes and kept in a climatized room. After 7 days, the activity is checked for deposition of fertile eggs. Eggs whose fertility is not visible from the outside are kept in glass tubes in a climatized cupboard until the larvae have hatched. An activity of 100% means that no tick has laid fertile eggs.

Ctenocephalides felis = Ctenocephalides felis oral test (CTECFE); settings: 100 ppm in citrated cattle blood, after two days
Experimental: Ctenocephalides Felis Oral Test (CTECFE)
Solvent: 1 Part by Weight of Dimethyl Sulphoxide
To produce a suitable preparation of active compound, 10 mg of active compound are mixed with 0.5 ml of dimethyl sulphoxide. Part of the concentrate is diluted with citrated cattle blood, and the desired concentration is prepared.
About 20 unfed adult fleas (Ctenocephalides felis) are placed into a chamber which is closed at the top and bottom with gauze. A metal cylinder whose bottom end is closed with parafilm is placed onto the chamber. The cylinder contains the blood/active compound preparation, which can be taken up by the fleas through the parafilm membrane. After two days, the kill in % is determined 100% means that all fleas have been killed; 0% means that none of the fleas have been killed.

Lucilia cuprina larvae = experiment: Lucilia cuprina test (LUCICU); settings: 100 ppm, after 2 days
Experimental: Lucilia cuprina Test (LUCICU)
as §1
(§2) To produce a suitable preparation of active compound, 10 mg of active compound are mixed with 0.5 ml of dimethyl sulphoxide and the concentrate is diluted with water to the desired concentration. Vessels containing horsemeat treated with the active compound preparation of the desired concentration are populated with about 20 Lucilia cuprina larvae.
After 2 days, the kill in % is determined. 100% means that all larvae have been killed; 0% means that none of the larvae have been killed.

[2] = system: cat fleas (Ctenocephalides felis, fully sensitive laboratory strain); experiment: Contact test against fleas in-vitro (CTECFE contact); settings: 500 g/ha, after 48 h
Summary of the method: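 Test tubes coated from acetone solutions by rotation, top concentration 500 g/ha (500 μg/dm^2) on tube surface, serial 1:5 dilutions. 10-20 CO2-anesthetized adult fleas held at room temperature for 24 and 48 h. Activity scored versus acetone control: knock-down or death of all fleas = 100%.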

[3] = system: larvae of the mustard beetle (Phaedon cochleariae); experiment: Phaedon test (PHAECO spray treatment); settings: 500 g/ha, spray, after 7 days
Summary of the method: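 Chinese cabbage leaf discs sprayed with compound formulated in acetone/dimethylformamide with alkylaryl polyglycol ether emulsifier, diluted in emulsifier-containing water to the desired concentration. After drying, discs were populated with mustard beetle larvae.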

[4] = system: caterpillars of the army worm (Spodoptera frugiperda); experiment: Spodoptera frugiperda test (SPODFR spray treatment); settings: 500 g/ha, spray, after 7 days
Summary of the method: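 Maize leaf discs sprayed with compound formulated in acetone/dimethylformamide plus alkylaryl polyglycol ether emulsifier and diluted in water, then infested with Spodoptera frugiperda caterpillars once dry. Mortality scored after 7 days as % activity, where 100% means all caterpillars killed.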

[5] = system: Anopheles gambiae (homocygus kdr); experiment: Anopheles test (ANPHGB surface treatment); settings: for knock-down activity: 100 mg/m^2, two hours after contact, exposition 30 minutes
Summary of the method: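 Compound dissolved in acetone at 2 mg/ml, pipetted onto glazed tile and dried; adult kdr-homozygous mosquitoes exposed on the tile for 30 min. Knock-down (%) read 2 h and mortality (%) 24 h after contact.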

Aedes aegypti = experiment: Aedes test (AEDSAE surface treatment); settings: for knock-down activity: 100 mg/m^2, two hours after contact, exposition 30 minutes
Experimental: Aedes Test (AEDSAE Surface Treatment)
To produce a suitable preparation of active compound, the active compound is dissolved in acetone (2 mg/ml). The active compound preparation is pipetted onto a glazed tile and, after drying, adult mosquitoes of the species Aedes aegypti are placed onto the treated tile. The exposition time is 30 minutes.
Two hours after contact to the treated surface, the knock-down proportion of the test animals in % is determined.
24 hours after contact to the treated surface, the mortality in % is determined Here, 100% means that all mosquitoes have been killed; 0% means that none of the mosquitoes has been killed.

Musca domestica = Musca domestica test (MUSCDO); settings: 100 ppm, after 2 days
Experimental: Musca domestica Test (MUSCDO)
as §1
as §2, with “a sponge” for “horsemeat”, “adult Musca domestica.” for “about 20 Lucilia cuprina larvae.”
After 2 days, the kill in % is determined 100% means that all flies have been killed; 0% means that none of the flies have been killed.

[6] = system: green peach aphid (Myzus persicae); experiment: Myzus test (MYZUPE spray treatment); settings: 500 g/ha, spray, after 6 days
Summary of the method: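 Chinese cabbage leaf discs infested with all aphid stages were sprayed with compound in acetone/DMF with emulsifier, diluted in emulsifier-containing water. Mortality in % assessed after 6 days (100% = all aphids killed).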

[7] = system: greenhouse red spider mite (Tetranychus urticae); experiment: Tetranychus test; OP-resistant (TETRUR spray treatment); settings: 500 g/ha, spray, after 6 days
Summary of the method: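 Bean leaf discs infested with all stages of OP-resistant Tetranychus urticae were sprayed with compound in acetone/DMF with alkylaryl polyglycol ether emulsifier, diluted in emulsifier-water. Mortality was scored after 6 days: 100% means all mites killed, 0% none.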

SMILES | activity (100% = none of the ticks has laid any fertile eggs) (Boophilus microplus) | activity (100% = no tick has laid fertile eggs) [1] | activity (kill in %) (Ctenocephalides felis) | activity (kill in %) (Lucilia cuprina larvae) | activity against cat fleas [2] | activity (beetle larvae killed) [3] | activity (caterpillars killed) [4] | knock-down activity [5] | knock-down activity (Aedes aegypti) | activity (kill in %) (Musca domestica) | activity (aphids killed) [6] | activity (spider mites killed) [7] | pest or weed control at 500 g/ha ([3]; Phaedon cochleariae, 168 h, read-out: activity (beetle larvae killed)) | pest or weed control at 500 g/ha ([4]; Spodoptera frugiperda, 168 h, read-out: activity (caterpillars killed)) | pest or weed control at 500 g/ha ([6]; Myzus persicae, 144 h, read-out: activity (aphids killed)) | pest or weed control at 500 g/ha ([7]; Tetranychus urticae, 144 h, read-out: activity (spider mites killed)) | mortality at 100 mg/m2 ([5]; Anopheles gambiae, read-out: activity (mortality in %)) | mortality at 100 mg/m2 (Aedes aegypti; Aedes aegypti, read-out: activity (mortality in %))
Cc1ccc(N=C2C(=CSc3ccc(F)cc3)CCc3c(F)cccc32)cc1 (mixture of isomers) [Example 1-34] | 100% | 80% | 100% | 100% | 100% | 100% | 100% | 100% | 100% | – | – | – | – | – | – | – | – | –
CCC1C(=CSc2ccc(F)cc2)C(=Nc2ccc(C)cc2)c2ccccc21 (mixture of isomers) [Example 1-37] | 100% | – | 100% | 100% | 100% | 100% | 100% | – | – | 90% | 100% | 100% | – | – | – | – | – | –
Cc1ccc(N=C2/C(=C/Sc3ccccc3)CCc3ccccc32)cc1 [Example 1-1] | 100% | 100% | 80% | 100% | 100% | – | – | 100% | 100% | – | – | – | 100% | 100% | 100% | 100% | 100% | 100%
Cc1ccc(N=C2C(=CSc3ccccc3)CSc3ccccc32)cc1 [Example 1-4] | 100% | 100% | 100% | 100% | 100% | 100% | 100% | 100% | – | – | 100% | 100% | – | – | – | – | – | –
COc1ccc(N=C2C(=CSc3ccccc3)CCc3ccccc32)cc1 [Example 1-10] | 100% | – | 80% | 90% | 100% | 100% | 100% | 95% | – | 100% | – | 100% | – | – | – | – | – | –
Cc1ccc(N=C2C(=CSc3ccc(F)cc3)CCc3occc32)cc1 [Example 1-29] | – | 100% | 80% | 100% | 100% | 100% | 100% | – | 90% | 100% | 100% | 100% | – | – | – | – | – | –
Cc1ccc(N=C2C(=CSc3ccc(Cl)cc3)CCc3ccccc32)cc1 [Example 1-59] | 100% | 100% | 100% | 90% | 100% | 100% | 100% | – | – | – | 100% | 100% | – | – | – | – | – | –
Cc1ccc(N=C2C(=CSc3cccc(Cl)c3)CCc3ccccc32)cc1 [Example 1-62] | 100% | 100% | 100% | 80% | 100% | 100% | 100% | 100% | – | – | 100% | 100% | – | – | – | – | – | –
Cc1ccc(N=C2C(=CSc3ccc(F)c(F)c3)CCc3ccccc32)cc1 [Example 1-74] | 100% | – | 80% | 100% | 100% | 100% | 100% | 100% | 95% | – | 100% | 100% | – | – | – | – | – | –
Cc1ccc(N=C2C(=CSc3ccc(F)cc3F)CCc3ccccc32)cc1 [Example 1-79] | 100% | – | 100% | 100% | 100% | 100% | 100% | 100% | 100% | – | 100% | 100% | – | – | – | – | – | –
Cc1ccc(N=C2C(=CSc3ccccc3F)CCc3ccccc32)cc1 [Example 1-80] | 100% | – | 90% | 100% | 100% | 100% | 100% | 100% | 80% | – | 100% | 100% | – | – | – | – | – | –
Cc1ccc(N=C2C(=CSc3ccc(C(F)(F)F)cc3)CCc3ccccc32)cc1 [Example 1-82] | 100% | – | 100% | 100% | 100% | 100% | 100% | 100% | – | – | 100% | 100% | – | – | – | – | – | –
